Patent US20030119067A1, “PYK2 related products and methods” (Sugen, Inc., priority 1996, published 2003)

System: PYK-2
Test: Tyrosine phosphorylation of PYK-2 in NIH3T3 cells overexpressing PYK-2
Assay type: cell-based
Conditions: NIH3T3 cells overexpressing PYK-2 / PYK-2-HA; TPA 6 μM, 15 min, 37° C.
Source text: The PYK-2 cDNA cloned in pLSV was cotransfected with pSV2neo into PC12 cells and NIH3T3 in order to establish stable cell lines. G418 resistant colonies were screened by immunoprecipitating and immunoblotting.
NIH3T3 cell lines were established that overexpress the PYK-2 and the PYK-2-HA protein. […] The level of phosphorylation is not so high.

## CCCCCCCCCCCCCC(=O)O[C@@H]1[C@@H](C)[C@@]2(O)[C@@H](C=C(CO)C[C@]3(O)C(=O)C(C)=C[C@@H]23)[C@@H]2C(C)(C)[C@]12OC(C)=O [PMA, phorbol 12-myristate 13-acetate]
  tyrosine phosphorylation of PYK-2: stronger effect
